How the values were obtained:
[1] = system: cultured adult mouse cochlea; test: Hair cell regeneration in cultured adult wild-type mouse cochlea, reprogramming followed by ad-Atoh1 infection; format: cell-based; details: for reprogramming and regeneration of hair cells with another HDAC inhibitor in the cocktail instead of VPA: TSA 82.5 nM, SAHA 2 μM, Belinostat 1 μM with LiCl, FSK, siFIR, siMxi1, after Ad-Atoh1 infection
Experimental: Different from the neonatal cochlear culture method, in which the cochleae were disassociated from the bone, adult mouse whole cochleae (4-6 weeks old) were dissected with the bone attached. The bulla was first removed from the skull and dipped in 75% ethanol for 3 minutes before being placed in HBSS. The vestibular region was also removed. Under a dissecting microscope, the middle ear, vessels and the debris were removed from the bulla. The bone covering the apical turn was removed, and round window and oval window membranes were opened to allow media exchange with the cochlear fluids. The ligament portion and Reissner's membrane at each end of the cochlea were also removed to facilitate the access of medium to the sensory epithelial region. The cochleae were maintained in DMEM/F12 (Invitrogen) supplemented with N2 and B27 (both from Invitrogen) for 14-18 days. Ad-Atoh1 ad-Atoh1-mCherry adenoviruses were purchased from the SignaGen Laboratories, Rockville, MD, with titers of 6×10^10 pfu/ml.
In the rtTA/tet-Myc/tet-NICD mouse model, cochleae were treated with Dox (Sigma, 2 μg/ml final concentration); In the Sox2/tdT/rtTA/tet-Myc/tet-NICD mouse model, cochleae were treated with Dox (Sigma, 2 μg/ml final concentration) and 4-Hydroxytamoxifen (Tm, Sigma) (20 ng/ml); in the rtTA/tet-Myc and rtTA/tet-Myc/Atoh1-GFP mouse models, cochleae were treated with Dox (Sigma, 2 μg/ml final concentration) and VPA (2 mM); in the Sox2/tdT/rtTA/tet-Myc mouse model, cochleae were treated with 4-Hydroxytamoxifen (20 ng/ml), Dox (Sigma, 2 μg/ml) and VPA (Sigma, 2 mM); in the rtTA/tet-NICD mouse model, cochleae were treated with Dox (Sigma, 2 μg/ml final concentration), LiCl (Sigma, 8 mM), FSK (Tocris Bioscience, 20 μM), siFIR (Santa Cruz Bio-technology, 0.02 μM), and siMxi1 (Santa Cruz Bio-technology, 0.02 μM); in the Sox2/tdT/rtTA/tet-NICD mouse model, cochleae were treated with 4-Hydroxytamoxifen (20 ng/ml), Dox (Sigma, 2 μg/ml final concentration), LiCl (8 mM), Forskolin (FSK) (20 μM), siFIR (Puf 60, Gene ID: 67959) […], and siMxi1 (Gene ID: 17859) (0.02 μM); in the Atoh1-GFP mouse model, cochleae were treated with VPA (2 mM), LiCl (8 mM), FSK […], siFIR (0.02 μM), and siMxi1 (0.02 μM) for 4 days, followed by ad-Atoh1 (6×10^10 pfu/ml) infection overnight. siRNAs were delivered following the manufacturer's instructions (Polyplus-transfection; 89129-920). In cultured adult mouse cochleae, they were treated with HDAC inhibitor, Belinostat (1 μM, Medchemexpress), Trichostatin A (TSA)(82.5 nM, Medchemexpress), Vorinostat (SAHA)(2 μM; Medchemexpress), and Myc siRNA Fbxw7 (0.02 μM, Santa Cruz Biotechnology). The controls were cultured adult cochleae of the same genotype treated with vehicle (sterile water with 0.1% DMSO) plus ad-Atoh1. […]

[2] = system: adult wild-type mouse utricle; test: Neomycin damage of cultured adult mouse utricle; format: cell-based; details: neomycin 4 mM for 5 days, vs untreated utricles
Experimental: Whole utricles were dissected from 4-week-old mice and cultured free-floating. Otoconia were removed using a gentle stream of phosphate-buffered saline (PBS) ejected from a 25G needle and syringe. Utricles were cultured in 1000 μL of media in untreated 24-well flat bottom plates. All cultures were maintained at 37° C. in 5% CO2/95% air.
Culture media consisted of Dulbecco's Modified Eagle's Medium/F12 (DMEM/F12, Invitrogen) with B27 and N2 supplement. Neomycin sulfate stock (10 mg/mL in 0.9% NaCl, from Sigma Aldrich) was diluted in culture media to 4 mM. Valproic acid (VPA) from Sigma was included at 2 mM, and siRNAs from Santa Cruz were included at 0.02 μM.

| Molecule | reprogramming and regeneration of hair cells with another HDAC inhibitor in the cocktail instead of VPA [1] | other results |
| --- | --- | --- |
| O=C(/C=C/c1cccc(S(=O)(=O)Nc2ccccc2)c1)NO [Belinostat, belinostat] | sufficient to induce reprogramming and efficient regeneration of hair cells |  |
| O=C(CCCCCCC(=O)Nc1ccccc1)NO [SAHA, N-Hydroxy-N′-phenyloctanediamide] | sufficient to induce reprogramming and efficient regeneration of hair cells |  |
| CC(/C=C/C(=O)NO)=C\[C@@H](C)C(=O)c1ccc(N(C)C)cc1 [TSA, (2E,4E,6R)-7-(4-(Dimethylamino)phenyl)-N-hydroxy-4,6-dimethyl-7-oxo-2,4-heptadienamide] | sufficient to induce reprogramming and efficient regeneration of hair cells |  |
| CCCC(CCC)C(=O)[O-].[Na+] [VPA, Sodium 2-propylpentanoate] |  | HC (MYO7A+) regeneration ([1]; cultured adult WT cochlea, treatment followed by Ad-Atoh1 infection (FIG. 7B)): did not lead to HC (MYO7A) |
| Neomycin sulfate |  | utricle hair cells (MYO7A) after neomycin [2]: decreased total numbers of utricle HC; utricle hair cells (MYO7A) after neomycin ([2]; listed as Neomycin): loss of hair cells |

— patent US20240100079A1, “METHODS AND COMPOSITIONS FOR REGENERATING HAIR CELLS IN THE INNER EAR OF ADULT MAMMALS” (Massachusetts Eye and Ear Infirmary, priority 2021, published 2024)
